Laboratory results taken from patent US20230399312A1, “SUBSTITUTED PYRIMIDINES AND METHODS OF USE” (THERAVANCE BIOPHARMA R&D IP, LLC, priority 2020, published 2023).

Assays:
[1] = molecular target: T1, recombinant human ALK5 (TGF-βR1) protein (Homo sapiens, UniProt P36897); experiment: Biochemical ALK5 (TGF-βR1) assay to measure pKi (LANCE Ultra ULight kinase assay); settings: apparent pKi, converted from pIC50 by Cheng-Prusoff
T1 construct: purchased Life Technologies PR9075A
T1 sequence (P36897 34-503): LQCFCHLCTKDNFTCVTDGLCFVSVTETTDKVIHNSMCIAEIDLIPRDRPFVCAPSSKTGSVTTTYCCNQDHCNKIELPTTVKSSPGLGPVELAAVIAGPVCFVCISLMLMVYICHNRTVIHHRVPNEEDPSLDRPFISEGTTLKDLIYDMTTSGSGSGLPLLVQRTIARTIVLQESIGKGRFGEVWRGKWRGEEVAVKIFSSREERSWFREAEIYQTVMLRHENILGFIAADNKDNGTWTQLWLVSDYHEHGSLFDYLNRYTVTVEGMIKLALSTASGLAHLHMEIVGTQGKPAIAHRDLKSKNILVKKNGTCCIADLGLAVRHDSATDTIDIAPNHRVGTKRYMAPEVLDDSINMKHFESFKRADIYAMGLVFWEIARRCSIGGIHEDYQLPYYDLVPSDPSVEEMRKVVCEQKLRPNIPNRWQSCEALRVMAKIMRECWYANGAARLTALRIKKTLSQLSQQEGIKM
Summary of the method: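 Cmpd + enzyme, 60 min RT; ATP from 125 μM (5×) stock, 60 min 37 °C; stop 12 mM EDTA/Eu anti-pThr1342 Topo2α Ab (pH 7.0 buffer); TR-FRET 665 nm. DMSO = max, SD-208 = min signal. 4-PL pIC50 → pKi (Cheng-Prusoff).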

[2] = test system: TGF-β-stimulated SMAD3 phosphorylation in BEAS-2B cells; experiment: Cellular ALK5 potency assay, inhibition of TGF-β stimulated pSMAD3 formation in BEAS-2B cells; format: cell-based; settings: Homo sapiens, pSMAD3, TGF-β 10 ng/mL, read-out: BEAS2B pIC50 (converted)
Summary of the method: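 Human lung epithelial BEAS-2B cells were pre-treated with compound for 1 h at 37 °C, then stimulated with TGF-β (final 10 ng/mL) for 30 min before lysis. pSMAD3 was quantified by AlphaLISA and pIC50 derived from dose-dependent signal change versus TGF-β-stimulated untreated cells.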

Structure (SMILES)	Ki [1] [nM]	IC50 [2] [nM]
Cc1cccc(-c2nccc(Nc3ccnc(Nc4ccc(CN5CCC(C(=O)O)C5)cc4)n3)n2)n1 (stereo not drawn) [Compound 124, 1-[[4-[[4-[[2-(6-methyl-2-pyridyl)pyrimidin-4-yl]amino]pyrimidin-2-yl]amino]phenyl]methyl] pyrrolidine-3-carboxylic acid]	0.0398 to 0.316	25.1 to 158
Cc1cccc(-c2nccc(Nc3ccnc(Nc4cccc(NC(=O)NC5CNC5)c4)n3)n2)n1 [Compound 125, 1-(azetidin-3-yl)-3-[3-[[4-[[2-(6-methyl-2-pyridyl)pyrimidin-4-yl]amino]pyrimidin-2-yl]amino]phenyl]urea]	0.0398 to 0.316	25.1 to 158
Cc1cccc(-c2nccc(Nc3ccnc(Nc4ccc(Cl)c(N)c4)n3)n2)n1 [Compound 126, N2-(3-amino-4-chloro-phenyl)-N4-[2-(6-methyl-2-pyridyl)pyrimidin-4-yl]pyrimidine-2,4-diamine]	0.398 to 3.16	≤ 20
COC1CN(Cc2ccc(Nc3nccc(Nc4ccnc(-c5cccc(C)n5)n4)n3)cc2)C1 [Compound 127, N2-[4-[(3-methoxyazetidin-1-yl)methyl]phenyl]-N4-[2-(6-methyl-2-pyridyl)pyrimidin-4-yl]pyrimidine-2,4-diamine]	0.0398 to 0.316	25.1 to 158
Cc1cccc(-c2nccc(Nc3ccnc(Nc4ccc(C)c(NC(=O)C5CCNCC5)c4)n3)n2)n1 [Compound 128, N-[2-methyl-5-[[4-[[2-(6-methyl-2-pyridyl)pyrimidin-4-yl]amino]pyrimidin-2-yl]amino]phenyl]piperidine-4-carboxamide]	0.0398 to 0.316	≤ 20
Cc1cccc(-c2nccc(Nc3ccnc(Nc4ccc(CN5CCN6CCCC6C5)cc4)n3)n2)n1 (stereo not drawn) [Compound 129, N2-[4-(3,4,6,7,8,8a-hexahydro-1H-pyrrolo[1,2-a]pyrazin-2-ylmethyl)phenyl]-N4-[2-(6-methyl-2-pyridyl)pyrimidin-4-yl]pyrimidine-2,4-diamine]	0.0398 to 0.316	25.1 to 158
Cc1cccc(-c2nccc(Nc3ccnc(Nc4ccc(F)c(CN5C[C@@H](C)N[C@@H](C)C5)c4)n3)n2)n1 [Compound 130, N2-[4-fluoro-3-[[rac-(3R,5S)-3,5-dimethylpiperazin-1-yl]methyl]phenyl]-N4-[2-(6-methyl-2-pyridyl)pyrimidin-4-yl]pyrimidine-2,4-diamine]	0.0398 to 0.316	25.1 to 158
Cc1cccc(-c2nccc(Nc3ccnc(Nc4ccc(CN5CC(O)C5)cc4)n3)n2)n1 [Compound 131, 1-[[4-[[4-[[2-(6-methyl-2-pyridyl)pyrimidin-4-yl]amino]pyrimidin-2-yl]amino]phenyl]methyl] azetidin-3-ol]	0.0398 to 0.316	25.1 to 158
Cc1cccc(-c2nccc(Nc3ccnc(Nc4ccc(CN5CCNC[C@@H]5CO)cc4)n3)n2)n1 [Compound 132, [(2R)-1-[[4-[[4-[[2-(6-methyl-2-pyridyl)pyrimidin-4-yl]amino]pyrimidin-2-yl]amino]phenyl]methyl]piperazin-2-yl]methanol]	0.0398 to 0.316	25.1 to 158
Cc1cccc(-c2nccc(Nc3ccnc(Nc4ccc(C5CCNCC5)cc4)n3)n2)n1 [Compound 133, N4-[2-(6-methyl-2-pyridyl)pyrimidin-4-yl]-N2-[4-(4-piperidyl)phenyl]pyrimidine-2,4-diamine]	0.0398 to 0.316	25.1 to 158
Cc1cccc(-c2nccc(Nc3ccnc(Nc4cccc(NC(=O)C5CCN(CCN(C)C)CC5)c4)n3)n2)n1 [Compound 134, 1-[2-(dimethylamino)ethyl]-N-[3-[[4-[[2-(6-methyl-2-pyridyl)pyrimidin-4-yl]amino]pyrimidin-2-yl]amino]phenyl]piperidine-4-carboxamide]	0.0398 to 0.316	25.1 to 158
Cc1cccc(-c2nccc(Nc3ccnc(Nc4ccc(Cl)c(NC(=O)C5CCNCC5)c4)n3)n2)n1 [Compound 135, N-[2-chloro-5-[[4-[[2-(6-methyl-2-pyridyl)pyrimidin-4-yl]amino]pyrimidin-2-yl]amino]phenyl]piperidine-4-carboxamide]	0.0398 to 0.316	≤ 20
Cc1cccc(-c2nccc(Nc3ccnc(Nc4ccc(N5CCN(Cc6ccccn6)CC5)cc4)n3)n2)n1 [Compound 136, N4-[2-(6-methyl-2-pyridyl)pyrimidin-4-yl]-N2-[4-[4-(2-pyridylmethyl)piperazin-1-yl]phenyl]pyrimidine-2,4-diamine]	0.0398 to 0.316	25.1 to 158
CNC1CCN(c2ccc(Nc3nccc(Nc4ccnc(-c5cc(Cl)ccc5F)n4)n3)cc2)CC1 [Compound 137, N4-[2-(5-chloro-2-fluoro-phenyl)pyrimidin-4-yl]-N2-[4-[4-(methylamino)-1-piperidyl]phenyl]pyrimidine-2,4-diamine]	0.0398 to 0.316	25.1 to 158
Cc1cccc(-c2nccc(Nc3ccnc(Nc4ccc(CN5CCCC(C(=O)OC6CNC6)C5)cc4)n3)n2)n1 (stereo not drawn) [Compound 138, azetidin-3-yl 1-[[4-[[4-[[2-(6-methyl-2-pyridyl)pyrimidin-4-yl]amino]pyrimidin-2-yl]amino]phenyl]methyl] piperidine-3-carboxylate]	0.0398 to 0.316	25.1 to 158
Cc1cccc(-c2nccc(Nc3ccnc(Nc4ccc(CN5CCC[C@@H](C(=O)O[C@H]6CCN(C)C6)C5)cc4)n3)n2)n1 [Compound 139, [(3S)-1-methylpyrrolidin-3-yl] (3R)-1-[[4-[[4-[[2-(6-methyl-2-pyridyl)pyrimidin-4-yl]amino]pyrimidin-2-yl]amino]phenyl]methyl] piperidine-3-carboxylate]	0.0398 to 0.316	≤ 20
Cc1cccc(-c2nccc(Nc3ccnc(Nc4nc(C(=O)NCC5(CO)CNC5)cs4)n3)n2)n1 [Compound 140, N-[[3-(hydroxymethyl)azetidin-3-yl]methyl]-2-[[4-[[2-(6-methyl-2-pyridyl)pyrimidin-4-yl]amino]pyrimidin-2-yl]amino]thiazole-4-carboxamide]	0.0398 to 0.316	25.1 to 158
Cc1cccc(-c2nccc(Nc3ccnc(Nc4cccc(CN5CCOCC5)c4)n3)n2)n1 [Compound 141, N4-[2-(6-methyl-2-pyridyl)pyrimidin-4-yl]-N2-[3-(morpholinomethyl)phenyl] pyrimidine-2,4-diamine]	0.0398 to 0.316	25.1 to 158
Cc1cccc(-c2nccc(Nc3ccnc(Nc4cc(C(=O)OCC5CNC5)cs4)n3)n2)n1 [Compound 142, azetidin-3-ylmethyl 5-((4-((2-(6-methylpyridin-2-yl)pyrimidin-4-yl)amino)pyrimidin-2-yl)amino)thiophene-3-carboxylate]	0.0398 to 0.316	25.1 to 158
Cc1cccc(-c2nccc(Nc3ccnc(Nc4ccc(N5C[C@@H](C)N[C@@H](C)C5)cc4)n3)n2)n1 [Compound 143, N4-[2-(6-methyl-2-pyridyl)pyrimidin-4-yl]-N2-[4-[rac-(3S,5R)-3,5-dimethylpiperazin-1-yl]phenyl]pyrimidine-2,4-diamine]	0.0398 to 0.316	25.1 to 158
Cc1cccc(-c2nccc(Nc3ccnc(Nc4ccc(N5CCCC(C(=O)O[C@H]6CCNC6)C5)cc4)n3)n2)n1 (stereo partly drawn) [Compound 144, [(3S)-pyrrolidin-3-yl] 1-[4-[[4-[[2-(6-methyl-2-pyridyl)pyrimidin-4-yl]amino]pyrimidin-2-yl]amino]phenyl]piperidine-3-carboxylate]	≤ 0.0316	25.1 to 158
